Experimental data published in publication PMC8105311 (Scientific Reports, 2021).

Columns and labels:
[1] = cited from earlier work
[2] = Solubility of L-carnitine in water; format: physicochemical
mice = system: mice; design: method as in PMID 25488130; conditions: cited from earlier work
[3] = 195Pt NMR of ligand exchange of cisplatin in solution; format: physicochemical; conditions: for Detection of Pt species by 195Pt NMR: DMSO aq. equimolar to 50 wt% TMG aq., day 1
Procedure: ^195Pt NMR spectrometry and mass spectrometry
After leaving it at room temperature, the resulting solution was measured at Day 5 and Day 10. We used co-axial tubes and K2[PtCl4] in D2O (for adjusting shim) was in the inner tube.
(1 mL) was prepared and left for one day. The resulting solution was measured by ^195Pt NMR (Day 1; 25,000 scans). NaCl (80 mg) was added and stirred. The solution was left and measured (Day2–4; 25,000 scans). In the case of DMSO aq., the concentration of DMSO uesd was adjusted to be equimolar to 50 wt% TMG aq.

[4] = Dissolution time of cisplatin/TMG powder vs native cisplatin powder; format: physicochemical; conditions: native cisplatin powder in 50 wt% TMG aq.
Procedure: (§1) The platinating agent (10 mM) was added to the 50 wt% TMG aq. (1 mL) and solubilized by stirring for 1 h. The resulting solution was left for more than one day. The resulting solution was freeze-dried and a pale yellow powder was obtained.
The yellow precipitates are undissolved cisplatin.

MDA-MB-231 cells = test: Anticancer efficiency of cisplatin (cell viability, CellTiter 96 Aqueous One Solution); format: cell-based, human; conditions: final 0.1-100 µM
Procedure: MDA-MB-231 human breast cancer cell was kindly gifted from Prof. Erik Sahai (The Francis-Crick Institute, UK) and described previously^7. The cells were grown and maintained as monolayer cultures in 5% CO2 and humidified atmosphere at 37 °C, using Dulbecco's modified Eagle medium (high glucose with L-glutamine and phenol red, Fujiﬁlm Wako Pure Chemical Corporation), 10 vol% fetal bovine serum (Sigma-Aldrich Co., Llc.), and penicillin–streptomycin solution (×100; Fujiﬁlm Wako Pure Chemical Corporation). The cells were subcultured every 3–5 days by using trypsin solution (0.5w/v% trypsin—5.3mmol/L EDTA·4Na solution without phenol red (×10), Fujiﬁlm Wako Pure Chemical Corporation).
Anticancer efficiency of cisplatin
MDA-MB-231 cells (5,000 cells/well) were seeded to each well of a 96-well plate and then pre-cultured for 24 h. […] The solutions were added to the media to be 100, 10, 1, and 0.1 µM. The cells were cultured for 72 h and the cell viability was investigated with CellTiter 96® Aqueous One Solution.
as §1

In the case of `C[S+](C)[O-]` [DMSO, dimethyl sulfoxide], the “Kamlet-Taft β value (hydrogen bond basicity)” value [1] is listed as 0.83.
With `C[N+](C)(C)C[C@H](O)CC(=O)[O-]` [L-carnitine] the Solubility in water [2] was “approximately 70 wt%”.
In the case of `C[N+](C)(C)CC(=O)O` [TMG, Trimethylglycine], the “Effect on nephrotoxicity when cisplatin is administered” value (mice) is given as “reduces nephrotoxicity”.
In the case of `N.N.O.[Cl][Pt+]` [[Pt(NH3)2Cl(H2O)]^+], the “Reversion to Pt(NH3)2Cl2 in the presence of NaCl” value ([3]; 50 wt% TMG aq., after NaCl addition) is reported as “reverted to Pt(NH3)2Cl2”, the “Ratio of Pt species by 195Pt NMR” value ([3]; 50 wt% TMG aq., after NaCl addition, day 2) is reported as 2 mol% and the “Ratio of Pt species by 195Pt NMR” value ([3]; 50 wt% TMG aq., after NaCl addition, day 3) is reported as 0 mol%. The “Ratio of Pt species by 195Pt NMR” value ([3]; 50 wt% TMG aq., after NaCl addition, day 4) was 0 mol%, the “Ratio of Pt species by 195Pt NMR” value ([3]; 50 wt% TMG aq., left for 24 h (day 1), before NaCl addition) was 17 mol% and the “Detection of Pt species by 195Pt NMR” value [3] was “not detected”.
In the case of `N.N.[Cl][Pt][Cl]` [cisplatin], the “Ligand exchange (195Pt NMR)” value ([3]; 50 wt% TMG aq., immediately after dissolution) is reported as “ligand exchange did not occur”, the Chloride ligand exchanged ([3]; 50 wt% TMG aq., room temperature, after 10 days) is reported as 66 mol% and the “Integral value of the signal of the emerging compound (Pt(NH3)2Cl2 signal fixed as 1.0)” value ([3]; 50 wt% TMG aq., room temperature, day 5) is reported as 1.25. The “Integral value of the signal of the emerging compound (Pt(NH3)2Cl2 signal fixed as 1.0)” value ([3]; 50 wt% TMG aq., room temperature, day 10) was 1.90, the “Detection of Pt species by 195Pt NMR” value [3] was “not detected” and the “Time required for dissolution” value [4] was “approximately 1 h”. The MDA-MB-231 cell viability (MDA-MB-231 cells; 10 mM cisplatin stock in 50 wt% TMG aq., 72 h) was “decreased in a dose-dependent manner”, the “Anticancer effect (MDA-MB-231 cell viability)” value (MDA-MB-231 cells; cisplatin stock in 50 wt% L-carnitine aq., 72 h) was “retained the anticancer effect” and the “Anticancer effect (MDA-MB-231 cell viability)” value (MDA-MB-231 cells; cisplatin stock in DMSO, 72 h) was “abolished”. The MDA-MB-231 cell viability (MDA-MB-231 cells; solution regenerated with water from freeze-dried cisplatin/TMG powder (10 mM cisplatin in 50 wt% TMG aq.)) was “killed MDA-MB-231 cells in a dose-dependent manner”.
For `O` [water], the “Kamlet-Taft β value (hydrogen bond basicity)” value [1] is listed as “around 0.15”.
With [Pt(NH3)Cl(DMSO)]^+ the “Detection of Pt species by 195Pt NMR” value [3] was “detected” and the “Reversion to Pt(NH3)2Cl2 in the presence of NaCl” value ([3]; DMSO aq., after NaCl addition) was “scarcely reverted to Pt(NH3)2Cl2”.
